Laboratory results published in US11912703B2, “6-azaindole compounds” (BRISTOL-MYERS SQUIBB COMPANY, priority 2017, dated 2024).
Read-outs that look alike come from different tables or passages of the source.

Legend:
human TLR7 = human TLR7 (Homo sapiens (Human), UniProt Q9NYK1); assay: TLR7 inhibition reporter assay (HEK-Blue SEAP); type: cell-based; settings: HEK-Blue cells overexpressing human TLR7, gardiquimod 7.5 μM stimulation
human TLR9 = human TLR9 (Homo sapiens (Human), UniProt Q9NR96); assay: TLR9 inhibition reporter assay (HEK-Blue SEAP);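 also: SEAP driven by IFN-β minimal promoter carrying five NF-κB and AP-1 sites, 22 h at 37 °C, compounds 0.05 nM–50 µM, inhibition scaled between agonist-plus-DMSO and reference-inhibitor wells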
Procedure: HEK-Blue™-cells (Invivogen) overexpressing human TLR7, TLR8 or TLR9 receptors were used for screening inhibitors of these receptors using an inducible SEAP (secreted embryonic alkaline phosphatase) reporter gene under the control of the IFN-β minimal promoter fused to five NF-κB and AP-1-binding sites. Briefly, cells are seeded into Greiner 384 well plates (15000 cells per well for TLR7, 20,000 for TLR8 and 25,000 for TLR9) and then treated with test compounds in DMSO to yield a final dose response concentration range of 0.05 nM-50 μM. After a 30 minute compound pre-treatment at room temperature, the cells are then stimulated with a TLR7 ligand (gardiquimod at a final concentration of 7.5 μM), TLR8 ligand (R848 at a final concentration of 15.9 μM) or TLR9 ligand (ODN2006 at a final concentration of 5 nM) to activate NF-κB and AP-1 which induce the production of SEAP. After a 22 hour incubation at 37° C., 500 CO2, SEAP levels are determined with the addition of HEK-Blue™ Detection reagent (Invivogen), a cell culture medium that allows for detection of SEAP, according to manufacturer's specifications.

human TLR8 = human TLR8 (Homo sapiens (Human), UniProt Q9NR97); assay: TLR8 inhibition reporter assay (HEK-Blue SEAP);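 also: SEAP driven by IFN-β minimal promoter with five NF-κB and AP-1 sites, compounds tested 0.05 nM to 50 µM, 22 h incubation, inhibition relative to agonist plus DMSO wells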
[1] = read-out: TLR9 IC50; HEK-Blue cells overexpressing human TLR9, ODN2006 5 nM stimulation, SEAP reporter
[2] = read-out: TLR8 IC50; HEK-Blue cells overexpressing human TLR8, R848 15.9 μM stimulation, SEAP reporter

Chain of human TLR8 (Q9NR97 27-1041): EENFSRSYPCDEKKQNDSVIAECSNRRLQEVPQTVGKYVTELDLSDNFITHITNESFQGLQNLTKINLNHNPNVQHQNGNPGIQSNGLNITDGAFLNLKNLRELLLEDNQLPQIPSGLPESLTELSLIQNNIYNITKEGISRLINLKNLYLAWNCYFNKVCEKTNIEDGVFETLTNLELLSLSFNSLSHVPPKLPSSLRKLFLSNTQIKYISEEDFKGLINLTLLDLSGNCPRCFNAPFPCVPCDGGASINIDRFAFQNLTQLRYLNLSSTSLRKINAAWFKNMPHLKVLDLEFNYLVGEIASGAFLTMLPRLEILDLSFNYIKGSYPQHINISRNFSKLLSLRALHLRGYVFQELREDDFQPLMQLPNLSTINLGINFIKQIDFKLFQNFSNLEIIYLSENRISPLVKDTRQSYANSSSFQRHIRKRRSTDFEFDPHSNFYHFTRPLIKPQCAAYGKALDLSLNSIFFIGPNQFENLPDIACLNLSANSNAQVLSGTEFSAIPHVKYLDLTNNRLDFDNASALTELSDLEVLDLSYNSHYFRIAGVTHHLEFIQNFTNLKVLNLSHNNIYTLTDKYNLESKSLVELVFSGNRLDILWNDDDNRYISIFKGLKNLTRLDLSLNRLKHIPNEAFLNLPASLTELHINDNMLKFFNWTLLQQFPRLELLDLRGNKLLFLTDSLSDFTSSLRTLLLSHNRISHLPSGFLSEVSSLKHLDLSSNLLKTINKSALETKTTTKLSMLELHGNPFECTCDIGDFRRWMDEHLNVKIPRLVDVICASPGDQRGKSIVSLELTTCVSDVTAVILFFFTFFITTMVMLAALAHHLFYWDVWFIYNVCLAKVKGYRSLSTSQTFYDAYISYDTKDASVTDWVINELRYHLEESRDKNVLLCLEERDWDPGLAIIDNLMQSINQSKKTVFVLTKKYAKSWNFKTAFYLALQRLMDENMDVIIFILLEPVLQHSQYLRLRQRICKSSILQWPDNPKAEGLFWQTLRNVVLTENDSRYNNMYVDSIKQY
Chain of human TLR7 (Q9NYK1 27-1049): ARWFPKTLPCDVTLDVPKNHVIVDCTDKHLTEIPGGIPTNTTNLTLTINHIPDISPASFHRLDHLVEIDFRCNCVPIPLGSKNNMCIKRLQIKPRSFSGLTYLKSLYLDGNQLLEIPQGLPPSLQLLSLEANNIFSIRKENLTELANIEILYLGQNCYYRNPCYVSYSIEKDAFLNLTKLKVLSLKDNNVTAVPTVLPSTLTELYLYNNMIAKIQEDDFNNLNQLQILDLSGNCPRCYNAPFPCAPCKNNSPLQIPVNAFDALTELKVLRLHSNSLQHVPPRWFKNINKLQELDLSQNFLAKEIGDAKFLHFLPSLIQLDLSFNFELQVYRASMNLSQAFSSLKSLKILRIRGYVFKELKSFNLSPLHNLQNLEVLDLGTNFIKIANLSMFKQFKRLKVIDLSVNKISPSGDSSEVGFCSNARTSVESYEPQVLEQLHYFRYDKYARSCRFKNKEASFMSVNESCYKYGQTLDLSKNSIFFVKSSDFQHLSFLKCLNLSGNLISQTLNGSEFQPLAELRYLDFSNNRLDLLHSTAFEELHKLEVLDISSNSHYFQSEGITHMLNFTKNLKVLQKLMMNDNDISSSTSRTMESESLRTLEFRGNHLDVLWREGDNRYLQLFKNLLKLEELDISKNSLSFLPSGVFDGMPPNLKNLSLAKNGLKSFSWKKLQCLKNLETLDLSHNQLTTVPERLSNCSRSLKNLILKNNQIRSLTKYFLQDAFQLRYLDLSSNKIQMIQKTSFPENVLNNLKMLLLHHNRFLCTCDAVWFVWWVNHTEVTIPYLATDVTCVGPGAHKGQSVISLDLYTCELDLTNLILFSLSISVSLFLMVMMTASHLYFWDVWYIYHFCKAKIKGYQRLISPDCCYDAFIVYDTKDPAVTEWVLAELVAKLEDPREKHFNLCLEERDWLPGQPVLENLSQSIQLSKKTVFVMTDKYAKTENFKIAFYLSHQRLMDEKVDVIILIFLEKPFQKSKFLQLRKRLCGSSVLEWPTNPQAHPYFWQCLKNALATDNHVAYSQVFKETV
Chain of human TLR9 (Q9NR96 26-1032): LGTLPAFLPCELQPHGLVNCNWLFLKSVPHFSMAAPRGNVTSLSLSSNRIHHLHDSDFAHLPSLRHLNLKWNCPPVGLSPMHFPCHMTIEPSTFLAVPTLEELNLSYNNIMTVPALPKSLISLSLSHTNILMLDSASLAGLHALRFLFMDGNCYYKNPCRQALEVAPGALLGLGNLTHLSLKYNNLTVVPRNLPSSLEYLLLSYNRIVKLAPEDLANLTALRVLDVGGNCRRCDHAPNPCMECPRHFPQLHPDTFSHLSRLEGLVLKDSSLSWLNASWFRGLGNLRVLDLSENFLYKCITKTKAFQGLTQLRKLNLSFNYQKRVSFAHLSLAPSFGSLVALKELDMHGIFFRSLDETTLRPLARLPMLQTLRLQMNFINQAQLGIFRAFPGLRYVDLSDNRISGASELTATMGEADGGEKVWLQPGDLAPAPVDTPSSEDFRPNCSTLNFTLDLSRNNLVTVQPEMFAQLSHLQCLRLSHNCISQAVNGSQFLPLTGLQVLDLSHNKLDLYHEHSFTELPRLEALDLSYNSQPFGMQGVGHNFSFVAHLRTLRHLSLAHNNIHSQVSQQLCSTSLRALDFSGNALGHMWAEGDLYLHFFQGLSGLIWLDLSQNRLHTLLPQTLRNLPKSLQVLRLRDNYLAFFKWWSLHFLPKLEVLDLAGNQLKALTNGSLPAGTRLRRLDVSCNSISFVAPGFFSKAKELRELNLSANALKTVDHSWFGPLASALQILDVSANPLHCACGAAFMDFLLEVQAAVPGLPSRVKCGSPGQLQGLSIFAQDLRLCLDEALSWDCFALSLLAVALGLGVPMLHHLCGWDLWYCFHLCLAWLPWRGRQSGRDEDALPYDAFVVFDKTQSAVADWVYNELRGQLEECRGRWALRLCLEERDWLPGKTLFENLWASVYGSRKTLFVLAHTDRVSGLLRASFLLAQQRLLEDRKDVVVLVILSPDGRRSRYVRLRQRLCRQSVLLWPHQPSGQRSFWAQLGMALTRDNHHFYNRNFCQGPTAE

Row | Compound | IC50 (human TLR7) [nM] | IC50 (human TLR9; [1]) [nM] | IC50 (human TLR8; [2]) [nM] | IC50 (human TLR9) [nM] | IC50 (human TLR8) [nM] | IC50 (human TLR9; read-out: TLR9 IC50; HEK-Blue cells overexpressing human TLR9; ODN2006 5 nM stimulation; SEAP reporter) [nM] | IC50 (human TLR8; read-out: TLR8 IC50; HEK-Blue cells overexpressing human TLR8; R848 15.9 μM stimulation; SEAP reporter) [nM]
1 | COc1cc(-c2[nH]c3cnc(N4CCC(NCC(=O)N(C)C)CC4)cc3c2C(C)C)cn2ncnc12 [Example 333] | 5.4 | 1060 | 4.3 |  |  |  | 
2 | COc1cc(-c2[nH]c3cnc(N4CC5(CN(CC6CCOCC6)C5)C4)c(F)c3c2C(C)C)cn2ncnc12 [Example 371] | 9 | 5480 | 5.9 |  |  |  | 
3 | COc1cc(-c2[nH]c3cnc(C4CCC(NCC(C)(C)C)C4)cc3c2C(C)C)cn2ncnc12 (stereo not drawn) [Example 95] | 41 | 1380 | 35 |  |  |  | 
4 | Cc1c(-c2[nH]c3cnc(N4CC5(C4)CN(C4COC4)C5)c(F)c3c2C(C)C)cn2ncnc2c1C [Example 400, 6-(4-fluoro-3-isopropyl-5-(6-(oxetan-3-yl)-2,6-diazaspiro[3.3]heptan-2-yl)-1H-pyrrolo[2,3-c]pyridin-2-yl)-7,8-dimethyl-[1,2,4]triazolo[1,5-a]pyridine] | 82 |  |  | > 50000 | 1.6 |  | 
5 | CC(=O)N1CCN(c2ncc3[nH]c(-c4cn5ncnc5c(C)c4C)c(C(C)C)c3c2F)CC1 [Example 427] | 35 | > 50000 | 37 |  |  |  | 
6 | COc1cc(-c2[nH]c3cnc(C4CCC(NC(C)C)CC4)cc3c2C(C)C)cn2ncnc12 (stereo not drawn) [Example 315] | 7.6 | 166 | 47 |  |  |  | 
7 | COCCN1CCN(c2ncc3[nH]c(-c4cc(OC)c5ncnn5c4)c(C(C)C)c3c2F)[C@H](C)C1 [Example 444] | 5 | 19900 | 6.7 |  |  |  | 
8 | Cc1c(-c2[nH]c3cnc(N4CCN(CC#N)C[C@H]4C)c(F)c3c2C(C)C)cn2ncnc2c1C [Example 467] | 2.8 |  |  |  |  | 17100 | 1.4
9 | COc1cc(-c2[nH]c3cnc(C4CCC(NCC5(C)COC5)CC4)c(C)c3c2C(C)C)cn2ncnc12 (stereo not drawn) [Example 270] | 2.6 | 392 | 3.2 |  |  |  | 
10 | COc1cc(-c2[nH]c3cnc(N4CC5(C4)CN(C4CCN(C(C)C)CC4)C5)c(F)c3c2C(C)C)cn2ncnc12 [Example 377] | 16 | 1410 | 16 |  |  |  | 
11 | COc1cc(-c2[nH]c3cnc(N4CCN(CCS(C)(=O)=O)CC4)c(Cl)c3c2C(C)C)cn2ncnc12 [Example 294] | 3 | 7630 | 4.7 |  |  |  | 
12 | Cc1cc(-c2[nH]c3cnc(C4CCN(CC(=O)N(C)C)CC4)c(F)c3c2C(C)C)cc(C)n1 [Example 153] | 8.8 | 3830 | 5.2 |  |  |  | 
13 | Cc1c(-c2[nH]c3cnc(C4CCN(C5COC5)CC4)cc3c2C(C)C)cn2ncnc2c1C [Example 30] | 4.7 | 855 | 7.7 |  |  |  | 

These reach a lower IC50 (human TLR7). Values come first.

Row | IC50 (human TLR7) [nM] | IC50 (human TLR9; [1]) [nM] | IC50 (human TLR8; [2]) [nM] | IC50 (human TLR9) [nM] | IC50 (human TLR8) [nM] | IC50 (human TLR9; read-out: TLR9 IC50; HEK-Blue cells overexpressing human TLR9; ODN2006 5 nM stimulation; SEAP reporter) [nM] | IC50 (human TLR8; read-out: TLR8 IC50; HEK-Blue cells overexpressing human TLR8; R848 15.9 μM stimulation; SEAP reporter) [nM] | Compound
14 | 2.4 | 1150 | 2.6 |  |  |  |  | Cc1cc(-c2[nH]c3cnc(C4CCC(NC(C)C)CC4)c(F)c3c2C(C)C)cn2ncnc12 (stereo not drawn) [Example 198]
15 | 2.2 | 2860 | 2.2 |  |  |  |  | CCN(CCC#N)C1CCN(c2ncc3[nH]c(-c4cc(C)c5ncnn5c4)c(C(C)C)c3c2C)CC1 [Example 286]
16 | 1.6 | 1880 | 2.3 |  |  |  |  | Cc1c(N2CCC(NCC(C)(C)C)CC2)ncc2[nH]c(-c3cc(C)c4ncnn4c3)c(C(C)C)c12 [Example 112]
17 | 1.3 | 5890 | 2.3 |  |  |  |  | COc1cc(-c2[nH]c3cnc(N4CCN(C(=O)CN(C)C)CC4)c(F)c3c2C(C)C)cn2ncnc12 [compound 368]
18 | 0.98 | 1860 | 0.42 |  |  |  |  | Cc1c(-c2[nH]c3cnc(N4CCC(N(C)C(C)C)CC4)c(F)c3c2C(C)C)cn2ncnc2c1C [Example 52]
19 | 0.97 | 2860 | 0.77 |  |  |  |  | COc1cc(-c2[nH]c3cnc(N4CCC(N5CCC5)CC4)c(F)c3c2C(C)C)cn2ncnc12 [Example 253]
20 | 0.5 | 1390 | 2 |  |  |  |  | Cc1c(N2CCC(N3CC4(COC4)C3)CC2)ncc2[nH]c(-c3cc(C)c4ncnn4c3)c(C(C)C)c12 [Example 53]
21 | 0.49 | 1790 | 0.52 |  |  |  |  | COc1cc(-c2[nH]c3cnc(N4CCC(NC5CCOCC5)CC4)c(C)c3c2C(C)C)cn2ncnc12 [Example 201]
